In the experiment the target is T1, MT1-MMP (Homo sapiens, UniProt P50281).
T1 construct: made in house
Put plainly: In vitro inhibition of MT1-MMP, fluorogenic peptide substrate. The note with it: catalytic domain of human MT1-MMP; substrate 10 μM; 37° C. Type of experiment: biochemical. The method, then:
The inhibitory activities of compounds of formula I on MT1-MMP, MMP1 (collagenase 1) and MMP2 (gelatinase A) can be determined as follows:
Stock solutions of substrate (MCA-Pro-Leu-Gly-Leu-Dpa-Ala-Arg-NH2, Knight, C. G., Willenbrock, F., Murphy, G., A novel coumarin-labelled peptide for sensitive continuous assays of the matrix metalloproteinases, FEBS lett., 296, 263-266, (1992)), are prepared in 100% DMSO at a concentration 1.0 mM. Stock solutions of inhibitors are prepared in 100% DMSO. The inhibitor is diluted into the assays from a solution in 100% DMSO, and controls substitute an equal volume of DMSO so that the final DMSO concentration from inhibitor and substrate dilutions in all assays is 6.0%. Assays are performed in assay buffer (150 mM NaCl, 10 mM CaCl2, 50 mM Tris-Cl pH7.5, 0.05% Brij-35) containing 6.0% DMSO once the substrate and inhibitor are diluted into it. The substrate concentration used in the assays is 10 μM. The test is carried out at 37° C. The fluorescence changes are monitored using an excitation wavelength of 320 nm and an emission wavelength of […]. The reaction mixture is added in duplicate to appropriate wells of a 96 well microfluor plate. The reaction mixture is preincubated with the inhibitor for 30 min, the reaction is started by the addition of MMP enzyme and the fluorescence intensity is measured for 10 min. A time point that is on a linear part of the curve is chosen to determine the activity. The inhibition results are expressed as the inhibitor concentrations that produced 50% inhibition (IC50) of the activity in the control (non-inhibited) reaction. In this test, the compounds of the formula I and their pharmacologically acceptable salts have an inhibiting concentration IC50 [μmol/litre] of 0.0001 and 0.030, usually of 0.0002 to 0.010, for MMP2 and an inhibiting concentration IC50 [μmol/litre] of 0.0005 and 0.125, usually of 0.001 to 0.05, for MT1-MMP.
Plasmid: The catalytic domain of the cDNA fragment encoding a full length of human MT1-MMP gene [from Prof. Motoharu Seiki, Institute of Medical Science, The University of Tokyo; Sato, H., Takino, T., Okada, Y., Cao, J., Shinagawa, A., Yamamoto, E. and Seiki, M. Nature (London), 370:61-65, 1994)] is amplified by polymerase chain reaction (PCR). […] The resulting PCR product of a 519-bp fragment is subcloned between the NdeI and BamHI unique sites of pET11a (Stratagene). The sequence of catalytic domain of MT1-MMP (CD-MT1-MMP) is verified by the ABI PRIS™ dye terminator cycle sequencing kit with the ABI PRISM™ 377 DNA sequencer (Perkin Elmer).
Expression and Purification: The subcloned CD-MT1-MMP is used to transfect E. coli strain BL21-[DE3] (Hanahan, D. J. Mol. Biol. 1983; 166(4):557-80) and expressed as insoluble inclusion body materials. Transfectants are grown at 37° C. in 50 ml Luria-Bertani (LB) medium in the presence of 50 µg/ml ampicillin to a cell density of OD600=0.6-1.0, and CD-MT1-MMP production is induced with 1 mM isopropyl-1-D-galactopyranoside (IPTG). After treatments with 5 mg/ml lysozyme and 10 μg/ml DNase I, the inclusion bodies are prepared from the harvested cells by using the detergent buffer containing 0.2 M NaCl, 1% w/v deoxycholic acid, and 1% v/v Nonidet P40. The solubilization is achieved by resuspending the inclusion bodies in the solubilization buffer composed of 6 M urea, 100 mM 2-mercaptoethanol, and 20 mM Tris-Cl, pH8.5. The enzyme is purified and renaturated using 10 ml of a Q-Sepharose (Amersham Pharmacia Biotech) column equilibrated with 5 mM CaCl2, 0.02% v/v NaN3, in 20 mM Tris-Cl pH7.5. After washing with three volumes of the same buffer, the bound proteins are eluted with two volumes of a linear gradient of 0.5-1.0 M NaCl. The collected fractions (1 ml each) are dialyzed for 6 h in equilibrated buffer. Superdex G200 column (1×15 cm) (Amersham Pharmacia) is equilibrated in 20 mM Tris-Cl, pH 7.5, 5 mM CaCl2, 0.02% NaN3. The desalted sample is applied to Superdex G200 column and chromatographed at 0.5 ml/min. […]
In general, IC50 refers to the midpoint of a concentration-inhibition curve. Higher therefore signals a need for much substance. `O=C(NO)[C@@H](Cc1ccccc1)N(Cc1ccc(Cl)cc1)S(=O)(=O)c1ccc(OCCCF)cc1` [Example 30, (R)-2-{(4-chloro-benzyl)-[4-(3-fluoro-propoxy)-benzenesulfonyl]-amino}-N-hydroxy-3-phenyl-propionamide] had an IC50 of 12.7 nM.
Molecule `COc1cccc(CN([C@H](C)C(=O)NO)S(=O)(=O)c2ccc(OCCCCl)cc2)c1` [Example 15, (R)-2-{[4-(3-chloro-propoxy)-benzenesulfonyl]-(3-methoxy-benzyl)-amino}-N-hydroxy-propionamide] had an IC50 of 3.7 nM.
`C=CCCOc1ccc(S(=O)(=O)N(Cc2cccc(OC)c2)[C@@H](C(=O)NO)C(C)C)cc1` [Example 13, (R)-2-[(4-but-3-enyloxy-benzenesulfonyl)-(3-methoxy-benzyl)-amino]-N-hydroxy-3-methyl-butyramide] registered an IC50 of 5.5 nM.
In the case of `COc1ccc(CN([C@H](CC(C)C)C(=O)NO)S(=O)(=O)c2ccc(OCCCCF)cc2)cc1` [Example 53, (R)-2-{[4-(4-fluoro-butoxy)-benzenesulfonyl]-(4-methoxy-benzyl)-amino}-N-hydroxy-4-methyl-valeramide], the IC50 was 9.2 nM.

The values above are taken from patent US8034810B2, “Arylsulfonamido-substituted hydroxamic acid derivatives” (Novartis AG, priority 1999, dated 2011).
